Results filed as inconclusive are left out. Calls of active or inactive are those of the source.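 How the source made its calls: active means compound lowering the normal-ribosome reporter at least twice as much as the humanized-ribosome reporter, growth loss under a set limit; inconclusive means no clear call, values can overlap the other calls; inactive means the rest.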

What all share (assay): E. coli growth inhibition, wild-type GFP versus h24 humanized RFP strain, dose response, h24 mutant RFP vs wild-type GFP, cherry-pick (AID 977628)
Assay [1] deals with E. coli h24 humanized mutant RFP strain growth, fluorescence, 24 h.
In assay [2] the test system is E. coli WT GFP strain growth, fluorescence, 24 h.
The subject of assay [3] is E. coli mixed WT/h24 culture total growth, OD600, 24 h.

What is called AC50 is the concentration giving half of the maximal activity seen. Regarding `O=C(O)c1cc(S(=O)(=O)N2CCN(C(c3ccccc3)c3ccccc3)CC2)ccc1Cl`, the AC50 in assay [1] was above 100 µM; in assay [2], > 100 µM (inactive); in assay [3], above 100 µM.

For `NS(=O)(=O)c1cccc(NC(=O)c2cccc(-c3ccc(O)cc3)c2)c1`, the AC50 in assay [1] is above 100 µM; in assay [2], > 100 µM (inactive); in assay [3], 50.8 µM.

With `CSc1nnnn1-c1ccc(Cl)cc1`, the AC50 in assay [1] and in assay [3] was above 100 µM throughout.

Take `CCc1cc2cc(OC)ccc2nc1SCC(=O)Nc1cc(OC)c(OC)cc1C(=O)O`: the AC50 in assay [1] and in assay [3] was above 100 µM each time.

In the case of `CCCCCc1nnc(NC(=O)C2COc3ccccc3O2)s1` (stereo unspecified), the AC50 in assay [1] and in assay [3] was above 100 µM in each case.

For the compound `CCn1cc(Br)c(C(=O)Nc2ccc(C(=O)OC(C)C)cc2)n1`, the results for the AC50 in assay [1], in assay [2] and in assay [3] were 2.96 µM, > 100 µM (inactive) and 19.9 µM, respectively.

For `CCc1ccn2cc(-c3ccc4c(c3)OCO4)nc2c1`, the AC50 in assay [1] is above 100 µM; in assay [2] it was > 100 µM (inactive); in assay [3] it was above 100 µM.

Turning to `CC(C)CNC(=O)c1cccc(NC(=O)C(C)Oc2ccccc2)c1` (stereo unspecified), the AC50 in assay [1] and in assay [3] was above 100 µM throughout.

On to `CNC(=O)c1ccsc1NC(=O)c1ccc2c(c1)CCCC2`, for which the figures for the AC50 in assay [1], in assay [2] and in assay [3] were 6.81 µM, > 100 µM (inactive) and above 100 µM, respectively.

On to `Cc1cccc(S(=O)(=O)Nc2ccc(-c3cn4ccccc4n3)cc2)c1`, for which the AC50 in assay [1] is above 100 µM; in assay [2] it was > 100 µM (inactive); in assay [3], 29.7 µM.

As for `COC(C(=O)Nc1ccnn1C1CCN(Cc2ccc(Cl)s2)CC1)c1ccccc1` (stereo unspecified), the AC50 in assay [1] and in assay [3] was above 100 µM each time.

On to `COc1ccc(NC(=O)c2cccnc2SC)cc1S(=O)(=O)N1CCCCC1`, for which the AC50 was above 100 µM in assay [1], > 100 µM (inactive) in assay [2] and above 100 µM in assay [3].

Consider `Cc1ccccc1-c1nc(CS(=O)(=O)CC(=O)N2CCCCC2)c(C)o1`, for which the AC50 in assay [1] and in assay [3] was above 100 µM each time.

In the case of `COc1ccc2cc(CO)c3cc(OC)c(OC)cc3c2c1`, the AC50 was above 100 µM in assay [1], > 100 µM (inactive) in assay [2] and above 100 µM in assay [3].

For the compound `c1ccc(-c2nc(-c3cccnc3)cs2)cc1`, the AC50 is above 100 µM in assay [1], > 100 µM (inactive) in assay [2] and above 100 µM in assay [3].

Turning to `COc1ccccc1C(=O)Nc1cccc2cccnc12`, the half-maximal activity concentration (AC50) in assay [1] was 10.2 µM; in assay [2], > 100 µM (inactive); in assay [3] it was above 100 µM.

As to `O=C1c2cccc(OCC(=O)N3CCCc4ccccc43)c2CCN1Cc1cccnc1`, the results for the AC50 in assay [1], in assay [2] and in assay [3] were 9.06 µM, > 100 µM (inactive) and 45.8 µM, respectively.

`O=C(COC(=O)C1CC2C=CC1C2)Nc1ccc([N+](=O)[O-])cc1` (stereo unspecified): the AC50 in assay [1] and in assay [3] was above 100 µM each time.

Regarding `CCc1cc(C(=O)c2ccc(OC)cc2)c(NC(=O)CCC(=O)O)s1`, the AC50 in assay [1] was 49 µM; in assay [2], > 100 µM (inactive); in assay [3], 50.9 µM.

Take `Cc1cc(C)n2nc(C(=O)Nc3cccc(S(=O)(=O)N(C)c4ccccc4)c3)nc2n1`: the AC50 is above 100 µM in assay [1], > 100 µM (inactive) in assay [2] and above 100 µM in assay [3].

Turning to `O=C(O)CCSc1nc2ccccc2n1-c1ccccc1`, the results for the AC50 in assay [1], in assay [2] and in assay [3] were 29.2 µM, > 100 µM (inactive) and 36.4 µM, respectively.

In the case of `CCCCNC(=O)C[C@@H]1C[C@@]2(C(=O)OC)CCCCC=C2N(Cc2ccccc2)C1=O`, the AC50 in assay [1] is above 100 µM; in assay [2], > 100 µM (inactive); in assay [3], above 100 µM.

In the case of `C[C@]12C(=O)N(c3ccc(F)cc3)C(=O)N1[C@@H]1c3ccccc3OC[C@@H]1[C@H]2c1ccccc1`, the AC50 in assay [1] is 5.36 µM; in assay [3] it was above 100 µM.

With `COc1ccccc1CNC(=O)CN1C(=O)NC(c2ccccc2)(c2ccccc2)C1=O`, the AC50 in assay [1] was above 100 µM; in assay [2], > 100 µM (inactive); in assay [3], above 100 µM.

Consider `COc1cc(NC(=O)COC(=O)CC(C)(C)C)c(C)cc1[N+](=O)[O-]`, for which the results for the half-maximal activity concentration (AC50) in assay [1], in assay [2] and in assay [3] were above 100 µM, > 100 µM (inactive) and above 100 µM, respectively.

Regarding `CCN(C(=O)CSc1cc(C)c2ccc(OC)cc2n1)C1CCS(=O)(=O)C1` (stereo unspecified), the AC50 in assay [1] and in assay [3] was above 100 µM throughout.

Regarding `CCN(CC)CCN(C(=O)C1CCCCC1)c1nc2cc3c(cc2s1)OCO3`, the AC50 was above 100 µM in assay [1] and > 100 µM (inactive) in assay [2].

Regarding `COc1cc2cc(C(=O)Nc3ccc4c(c3)OCCO4)[nH]c2cc1OC`, the AC50 in assay [1] and in assay [3] was above 100 µM each time.

As to `Cc1oc(-c2ccc(-c3ccccc3)cc2)nc1CN(C)C1CCOC1` (stereo unspecified), the results for the AC50 in assay [1], in assay [2] and in assay [3] were above 100 µM, > 100 µM (inactive) and 49.9 µM, respectively.

For the compound `O=S1(=O)c2ccc(Br)cc2OCCC2CCCCN21` (stereo unspecified), the AC50 in assay [1] was above 100 µM; in assay [2], > 100 µM (inactive); in assay [3] it was above 100 µM.

`COc1ccc(NC(=O)c2sccc2-n2cccc2)cc1`: the AC50 in assay [1] is above 100 µM; in assay [2], > 100 µM (inactive).

Regarding `Cc1cc(C(=O)c2ccc3ccccc3c2)c(C)o1`, the AC50 in assay [1] is above 100 µM; in assay [2] it was > 100 µM (inactive).

Take `CCc1cccc(NC(=O)CCC(=O)N2CCSc3ccccc32)c1`: the AC50 is above 100 µM in assay [1], > 100 µM (inactive) in assay [2] and 41.7 µM in assay [3].

In the case of `CCOc1ccc(NC(=O)CN(C)CC(=O)Nc2ccc(Br)cc2F)cc1OCC`, the AC50 in assay [1] is above 100 µM; in assay [2], > 100 µM (inactive); in assay [3], above 100 µM.

With `COCc1ccc(C(=O)N2CCCC(C(=O)c3ccc(Cl)cc3C)C2)o1` (stereo unspecified), the AC50 in assay [1] and in assay [3] was above 100 µM throughout.

As to `COC(=O)c1ccsc1NC(=O)c1cccc(OC)c1`, the AC50 in assay [1] and in assay [3] was above 100 µM each time.

As for `O=C(O)c1cccnc1SCc1ccccc1Cl`, the AC50 was above 100 µM in assay [1] and > 100 µM (inactive) in assay [2].

With `Nc1[nH]c(C(=O)c2ccccc2)c(-c2ccc3c(c2)OCO3)c1C(=O)NCCc1c[nH]c2ccccc12`, the AC50 in assay [1] is above 100 µM; in assay [2], > 100 µM (inactive); in assay [3], above 100 µM.

Turning to `CCCN(Cc1ccco1)S(=O)(=O)c1ccc(OC)c(OC)c1`, the AC50 in assay [1] and in assay [3] was above 100 µM in each case.

Take `CCOC(=O)[C@]12Cc3ccccc3[C@H]1N(C)C(=O)c1cc(OC)ccc12`: the AC50 in assay [1] was above 100 µM; in assay [2], > 100 µM (inactive).

`Cc1nc(C)c(-c2ccn(S(=O)(=O)c3ccc(Cl)cc3)n2)o1`: the results for the AC50 in assay [1], in assay [2] and in assay [3] were above 100 µM, > 100 µM (inactive) and 45.5 µM, respectively.

Regarding `Cc1ccccc1-n1ncc2c(SCC(=O)N3c4ccccc4CC3C)ncnc21` (stereo unspecified), the AC50 was above 100 µM in assay [1] and > 100 µM (inactive) in assay [2].

In the case of `COc1ccccc1-c1nnc(C2CCN(S(=O)(=O)c3cccc([N+](=O)[O-])c3)CC2)o1`, the figures for the AC50 in assay [1], in assay [2] and in assay [3] were above 100 µM, > 100 µM (inactive) and above 100 µM, respectively.

As for `O=C1C(c2ccccc2)c2ccccc2N1Cc1ccccc1` (stereo unspecified), the values for the AC50 in assay [1] and in assay [2] were above 100 µM and > 100 µM (inactive), respectively.

As for `Cc1nnc2sc(SCC(=O)Nc3ccc(Br)cc3)nn2c1=O`, the results for the concentration at half-maximal activity (AC50) in assay [1], in assay [2] and in assay [3] were above 100 µM, > 100 µM (inactive) and above 100 µM, respectively.

Take `Cc1ccc(C(=O)Nc2cccc3[nH]c(C(F)(F)F)nc23)cc1`: the AC50 in assay [1] was above 100 µM; in assay [2], > 100 µM (inactive); in assay [3] it was above 100 µM.

Take `C=CCNc1ccc2c(c1)OC[C@H](CC(C)C)NS2(=O)=O`: the AC50 in assay [1] is above 100 µM; in assay [2], > 100 µM (inactive); in assay [3] it was above 100 µM.

Regarding `O=S(=O)(NCc1ccc2c(c1)OCO2)c1ccc2c(c1)oc1ccccc12`, the figures for the AC50 in assay [1] and in assay [2] were above 100 µM and > 100 µM (inactive), respectively.

For the compound `O=C(Nc1ccc(S(=O)(=O)N2CCOCC2)cc1)c1ccc([N+](=O)[O-])o1`, the AC50 in assay [1] is 50.9 µM; in assay [2] it was > 100 µM (inactive).

Turning to `O=C(O)c1ccc(-c2noc(-c3cccc(Cl)c3)n2)cc1`, the AC50 in assay [1] was above 100 µM; in assay [2] it was > 100 µM (inactive).

On to `COc1ccc(CCNc2nc(-c3ccncc3)cs2)cc1OC`, for which the AC50 in assay [1] is above 100 µM; in assay [2], > 100 µM (inactive).

Take `CC(=O)Nc1nc(C)c(-c2csc(Nc3ccccn3)n2)s1`: the figures for the AC50 in assay [1] and in assay [2] were above 100 µM and > 100 µM (inactive), respectively.

With `Nc1ccccc1Sc1ccc(C(F)(F)F)cc1[N+](=O)[O-]`, the AC50 in assay [1] was above 100 µM; in assay [2], > 100 µM (inactive); in assay [3], 52.3 µM.

Regarding `Cc1cc(C)cc(NC(=O)c2cccc(NC(=O)c3ccco3)c2)c1`, the results for the AC50 in assay [1] and in assay [2] were above 100 µM and > 100 µM (inactive), respectively.
